According to patent US5232684A, “Labelled resiniferatoxin, compositions thereof, and methods for using the same” (priority 1990, dated 1993):

What was measured:
CD-1 mice = assay: Induction of hypothermia in CD-1 mice; format: in vivo, mouse; settings: 10^-5 g/kg s.c.
Excerpt: [^3 H]RTX (37 Ci/mmol) is synthesized by esterification of resiniferonol 9,13,14-orthophenylacetate (Chemicals for Cancer Research, Inc., Chaska, MN) at the C20 position with [^3 H]homovanillic acid (Chemical Synthesis and Analysis Laboratory, NCI-FCRF, Frederick, MD). The labelled compound is purified on HPLC and cochromatographed with authentic RTX (Chemicals for Cancer Research, Inc., Chaska, MN). The biological activity of [^3 H]RTX is confirmed in 2 assays: induction of hypothermia in CD-1 mice (10^-5 g/kg s.c.) and induction of ear edema in Sprague-Dawley rats (2×10^-7 g/ear).

rat cerebellum = assay: [^3H]RTX binding to rat cerebellum
[1] = molecular target: T1, capsaicin receptor (rat DRG) (Rattus norvegicus, UniProt O35433); assay: RTX binding in DRG preparations after in vivo RTX treatment
T1 construct: homotetramer

striatum = assay: [^3H]RTX binding to rat striatum
[2] = molecular target: T2, capsaicin receptor (pig DRG membranes) (Sus scrofa, UniProt F1RLJ0); assay: biochemical; format: binding
T2 construct: tissue Mt; Airy Locker Co., Mt; Airy, MD; host or cells: pig dorsal root ganglia
Method: Membrane preparations are obtained from the DRG and Gasser ganglia of female Sprague-Dawley rats (250-300 g); animals are sacrificed by decapitation under ether anesthesia, the ganglia removed and collected into ice-cold disrupting buffer (5 mM KCl, 5.8 mM NaCl, 2 mM MgCl2, 12 mM glucose, 137 mM sucrose, 10 mM HEPES, 5 mM DTT, 2 mM EGTA, pH 7.4). After homogenization with the aid of a Polytron tissue homogenizer, samples are filtered over surgical gauze and then washed twice with the same buffer and stored at -70° C. Particulate fractions are obtained from other rat neural tissues (cerebellum, spinal cord, preoptic region, striatum, substantia nigra) and from DRG of pigs (Mt. Airy Locker Co., Mt. Airy, MD), sheep, cows (kindly provided by Dr. Solomon, USDA, Beltsville, MD), and chickens (Truslow Farms, Chesterton, MD) by a similar procedure.
Subcellular fractions are prepared by a modification of the method of Bastiaensen et al. (Bastiaensen, E., Miserez, B. and De Potter, W., Subcellular fractionation of bovine ganglion stellatum: co-storage of noradrenaline, Met-enkephalin and neuropeptide Y in large `dense-cored` vesicles, Brain Res., 442 (1988) 124-130. ) Briefly: DRG are dissected free from capsule, cut into small pieces with scissors, and then homogenized with a teflon pestle (20 strokes) in ice-cold 0.25 M sucrose/ 20 mM Tris-Cl (pH 7.4) buffer. The homogenate is filtered over surgical gauze; it is then centrifuged for 10 min at 2000 gmax, giving a pellet P1, and again at 10 000 gmax for 15 min giving a pellet P2. The P1 and P2 pellets are saved as nuclear and mitochondrial fractions for binding studies. The resulting supernatant is further centrifuged at 50 000 gmax for 60 min, and then the pellet is harvested as the plasma-membrane enriched microsomal fraction.
(§1) The binding assays are carried out in a volume of 250 ul, containing assay buffer (same as the disrupting buffer but omitting DTT and EGTA and including 0.75 mM CaCl2), 26-30 ug of membrane protein and 0.25 mg/ml bovine serum albumin. […] Tubes are kept on ice while the additions are made. The assay mixture is incubated for 10 min at 37° C.; it is then cooled on ice. 150 ul of the mixture is pipetted onto Whatman GF/C or GF/F glass fiber filters presoaked with 10 mg/ml bovine serum albumin in 20 mM Tris-Cl (pH 7.4) and filtered immediately. An aliquot of 50 ul of the mixture is removed to determine total radioactivity. The filters are washed with 100 ml of ice-cold 20 mM Tris-Cl, pH 7 4, containing 0.1 mg/ml bovine serum albumin, and the bound radioactivity is determined by scintillation counting. Non-specific binding is determined in the presence of 100-1000 nM non-radioactive RTX.
Binding data from saturation experiments using increasing concentrations of hot ligand are analyzed using the collection of computer programs described by McPherson (McPherson, G.A., Analysis of radioligand binding experiments: a collection of computer programs for the IBM PC, J.Pharmacol.Methods, 14 (1985) 213-228).
Scatchard and Hill transformations are performed by the Equilibrium Binding Data Analysis program referred to as EBDA. Data are further analyzed by the curvilinear regression program LIGAND (Munson, R.J. and Rodbard, D., LIGAND: a versatile computerized approach for characterization of ligand-binding systems, Anal.Biochem, 107 (1980) 220-239).
RTX binding is also analyzed in the presence of a fixed, low (60 pM or 300 pM) concentration of [^3 H]RTX and increasing concentrations of non-radioactive RTX or other ligand.

[3] = molecular target: T3, capsaicin receptor (dorsal horn from pig spinal cord) (Sus scrofa, UniProt F1RLJ0); assay: Binding to membrane preparations from dissected dorsal horn of pig spinal cord
T3 construct: membrane preparations from dissected dorsal horn from pig spinal cord; from tissue; host or cells: dissected dorsal horn of pig spinal cord
Method: as §1, with “RTX. Under these conditions approximately 30% of the non-specific binding is due to sticking of [^3 H]RTX to the filters. The remainder presumably reflects partitioning into the lipid phase of the membranes, as had been observed previously for typical phorbol esters (Driedger, P.E. and Blumberg, P.M., Specific binding of phorbol ester tumor promoters, Proc. Natl. Acad. Sci. U.S.A., 77 (1980) 567-571). […]” for “RTX.”
Alternatively, binding can be measured to membrane preparations from dissected dorsal horn from pig spinal cord. […]

T2 sequence (F1RLJ0 1-841): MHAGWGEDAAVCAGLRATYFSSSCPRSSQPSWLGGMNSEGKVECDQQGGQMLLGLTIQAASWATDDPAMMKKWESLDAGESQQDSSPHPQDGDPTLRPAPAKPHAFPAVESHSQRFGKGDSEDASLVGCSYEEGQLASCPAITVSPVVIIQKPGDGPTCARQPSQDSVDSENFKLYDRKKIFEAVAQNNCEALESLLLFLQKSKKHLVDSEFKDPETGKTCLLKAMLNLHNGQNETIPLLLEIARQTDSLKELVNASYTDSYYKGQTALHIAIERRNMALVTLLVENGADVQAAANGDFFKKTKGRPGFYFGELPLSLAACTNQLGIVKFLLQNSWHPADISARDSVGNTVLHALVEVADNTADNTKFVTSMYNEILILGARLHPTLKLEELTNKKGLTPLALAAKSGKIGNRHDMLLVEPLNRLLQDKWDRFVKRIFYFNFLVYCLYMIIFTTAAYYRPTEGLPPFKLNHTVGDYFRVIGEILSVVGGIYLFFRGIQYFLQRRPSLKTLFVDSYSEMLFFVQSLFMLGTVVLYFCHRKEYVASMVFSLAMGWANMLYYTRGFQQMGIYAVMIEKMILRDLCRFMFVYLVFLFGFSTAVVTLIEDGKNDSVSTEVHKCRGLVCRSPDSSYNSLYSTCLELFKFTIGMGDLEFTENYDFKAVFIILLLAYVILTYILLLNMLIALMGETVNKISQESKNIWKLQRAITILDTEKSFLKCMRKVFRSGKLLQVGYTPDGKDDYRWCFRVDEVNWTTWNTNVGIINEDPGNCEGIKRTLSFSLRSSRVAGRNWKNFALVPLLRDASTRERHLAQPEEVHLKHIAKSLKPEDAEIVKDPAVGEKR
T3 sequence (F1RLJ0 1-841): as above
T1 sequence (O35433 whole entry): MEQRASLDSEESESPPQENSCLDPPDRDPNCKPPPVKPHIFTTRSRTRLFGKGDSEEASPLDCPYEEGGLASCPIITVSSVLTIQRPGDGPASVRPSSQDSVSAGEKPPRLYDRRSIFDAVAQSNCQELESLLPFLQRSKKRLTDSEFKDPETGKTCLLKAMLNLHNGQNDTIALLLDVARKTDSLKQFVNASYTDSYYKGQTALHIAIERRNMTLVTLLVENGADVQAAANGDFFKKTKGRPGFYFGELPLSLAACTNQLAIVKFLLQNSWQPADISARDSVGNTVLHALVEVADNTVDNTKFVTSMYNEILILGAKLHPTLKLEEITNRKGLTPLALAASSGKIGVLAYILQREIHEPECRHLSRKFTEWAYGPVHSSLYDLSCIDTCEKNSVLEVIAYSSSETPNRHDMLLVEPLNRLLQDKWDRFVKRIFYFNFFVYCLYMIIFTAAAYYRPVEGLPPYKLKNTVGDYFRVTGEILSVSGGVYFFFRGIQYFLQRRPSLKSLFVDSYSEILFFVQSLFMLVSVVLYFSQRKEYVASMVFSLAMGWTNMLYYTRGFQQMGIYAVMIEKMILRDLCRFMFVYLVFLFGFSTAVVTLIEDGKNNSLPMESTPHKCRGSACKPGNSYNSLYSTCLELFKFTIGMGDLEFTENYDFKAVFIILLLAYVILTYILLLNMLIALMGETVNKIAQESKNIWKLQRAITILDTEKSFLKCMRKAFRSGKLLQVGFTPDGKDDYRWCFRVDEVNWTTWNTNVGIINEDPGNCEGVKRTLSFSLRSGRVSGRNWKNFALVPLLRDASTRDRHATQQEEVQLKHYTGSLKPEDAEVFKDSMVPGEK

Compound: C=C(C)[C@]12C[C@@H](C)[C@@]34O[C@](Cc5ccccc5)(O[C@@H]1[C@@H]3C=C(COC(=O)Cc1ccc(O)c(OC)c1)C[C@]1(O)C(=O)C(C)=C[C@@H]41)O2 [[^3 H]RTX, [^3 H]resiniferatoxin]
- biological activity: induction of hypothermia (CD-1 mice): confirmed
- specific binding (rat cerebellum): no specific binding
- [^3H]RTX binding sites in neonatally treated animals [1]: very significant loss
- detection of [^3H]RTX binding (striatum): very difficult
- specific binding ([2]; DRG from pigs): Specific binding is observed
- Bmax (summary) ([2]; pig DRG): 730 fmol/mg
- specific [^3H]RTX binding after heating of membranes ([2]; pig DRG membranes heated to 55° C. for 10-20 min, 2 experiments): completely inactivates
- time at which specific binding is maximal ([2]; pig DRG membranes, 37° C.): 10 min
- Hill coefficient ([2]; pig DRG, partially purified membrane preparations): 0.9
- Bmax (Scatchard analysis) ([2]; pig DRG, partially purified membrane preparations, 2 separate determinations): 700 fmol/mg protein
- Kd ([2]; pig DRG, partially purified membrane preparations, 2 separate determinations, LIGAND, read-out: Kd (Scatchard analysis)): 1.7 nM
- Bmax (competition) ([2]; pig DRG, mean±SEM, 4 determinations): 730±80 fmol/ mg protein
- % specific binding [3]: 90%
- Kd [3]: 0.1 nM
